{"source": "ChEMBL document CHEMBL1201862", "about": "“PubChem BioAssay data set” (2004)", "key": {"HeLa": {"system": "HeLa", "assay": "HeLa cell cytotoxicity, dose response, cytotoxicity control for MITF activator project, CellTiter-Glo luminescence, cherry-pick samples (AID 540259)", "format": "functional, cell-based", "settings": "Homo sapiens"}, "CHO": {"system": "CHO", "assay": "cytotoxicity in TLR9-MyD88 CHO cells, dose response, cytotoxicity control for TLR9-MyD88 binding inhibitor project, cell-based, luminescence (AID 588339);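 also: CHO cells stably coexpressing TLR9 and MyD88 fusions from primary screen; compound exposure lasted 48 hours before viability readout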", "format": "functional, hamster", "settings": "Cricetulus griseus"}, "Beta Lactamase": {"target": "Beta Lactamase (Pseudomonas aeruginosa, UniProt Q932Y6)", "sequence (Q932Y6 whole entry)": "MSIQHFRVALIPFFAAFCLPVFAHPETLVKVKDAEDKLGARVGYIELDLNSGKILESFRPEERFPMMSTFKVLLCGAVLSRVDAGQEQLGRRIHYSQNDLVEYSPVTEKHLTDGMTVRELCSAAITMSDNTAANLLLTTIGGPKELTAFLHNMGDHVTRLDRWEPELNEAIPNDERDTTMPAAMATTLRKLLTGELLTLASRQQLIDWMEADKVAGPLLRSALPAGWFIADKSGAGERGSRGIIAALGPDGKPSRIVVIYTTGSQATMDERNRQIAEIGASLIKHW", "assay": "beta-lactamase reporter inhibitor potency, dose response, artefact control for TLR9-MyD88 binding inhibitor project, BLA reporter cells, FRET fluorescence (AID 588341);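 also: cell based assay in CHO-K1 cells stably expressing beta-lactamase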", "format": "cell-based"}, "[1]": {"target": "Beta-2 adrenergic receptor (Homo sapiens, UniProt P07550)", "sequence (P07550 whole entry)": "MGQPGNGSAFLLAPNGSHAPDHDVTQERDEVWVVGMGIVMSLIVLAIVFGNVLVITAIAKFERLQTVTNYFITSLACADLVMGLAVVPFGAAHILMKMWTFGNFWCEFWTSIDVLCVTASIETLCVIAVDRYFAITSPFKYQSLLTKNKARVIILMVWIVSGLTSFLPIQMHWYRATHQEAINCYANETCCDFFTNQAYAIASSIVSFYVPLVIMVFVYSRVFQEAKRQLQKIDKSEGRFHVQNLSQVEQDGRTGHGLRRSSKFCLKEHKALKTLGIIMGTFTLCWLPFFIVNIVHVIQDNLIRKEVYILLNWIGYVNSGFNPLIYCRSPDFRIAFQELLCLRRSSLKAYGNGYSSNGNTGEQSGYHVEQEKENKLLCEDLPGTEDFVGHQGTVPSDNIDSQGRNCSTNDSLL", "assay": "beta2AR agonists driving receptor internalization, dose response, cell-based, FAP fluorogen, flow cytometry, cherry pick 1 (AID 588763)", "format": "functional"}, "HEK293": {"system": "HEK293", "assay": "cells", "format": "functional, cell-based", "settings": "Homo sapiens"}, "[2]": {"target": "T1, Nuclear receptor subfamily 0 group B member 1 (Homo sapiens, UniProt P51843)", "T1 sequence (P51843 whole entry)": "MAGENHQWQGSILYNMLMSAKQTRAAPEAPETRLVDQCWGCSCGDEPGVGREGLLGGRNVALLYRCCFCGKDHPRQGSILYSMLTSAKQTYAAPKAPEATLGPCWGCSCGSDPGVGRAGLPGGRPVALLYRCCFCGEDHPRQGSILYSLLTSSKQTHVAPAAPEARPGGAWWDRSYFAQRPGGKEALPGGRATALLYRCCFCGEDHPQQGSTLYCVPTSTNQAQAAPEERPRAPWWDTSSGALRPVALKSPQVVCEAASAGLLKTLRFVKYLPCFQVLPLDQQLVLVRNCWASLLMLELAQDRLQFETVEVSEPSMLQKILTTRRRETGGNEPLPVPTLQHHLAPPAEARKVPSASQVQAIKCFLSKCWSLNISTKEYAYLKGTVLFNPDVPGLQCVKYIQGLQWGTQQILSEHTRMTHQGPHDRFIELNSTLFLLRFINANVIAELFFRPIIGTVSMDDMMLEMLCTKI", "assay": "Luminescence-based cell-based high throughput dose response assay for inhibitors of the orphan nuclear receptor subfamily 0, group B, member 1 (DAX1; NR0B1). [Related pubchem assays (depositor defined):AID504766, AID504790]", "format": "functional"}, "[3]": {"assay": "Luminescence Cell-Based Dose Confirmation HTS to Identify Activators of 5'UTR Stem-Loop Driven Alpha-Synuclein mRNA Translation in H4 Neuroglioblastoma Cells. [Related pubchem assays: 1829 (Project Summary), 1814 (Primary HTS)]", "format": "functional"}, "[4]": {"assay": "Luminescence Cell-Based Dose Response HTS to Identify Activators of Luciferase Translation or Activity in H4 […] Cells. [Related pubchem assays: 1829 (Project Summary), 1814 (Primary HTS)]", "format": "functional"}, "H4": {"system": "H4", "assay": "Luminescence Cell-Based Dose Response HTS to Identify Activators of 5'UTR Stem-Loop Driven Prion Protein mRNA Translation in H4 Neuroglioblastoma Cells. [Related pubchem assays: 1829 (Project Summary), 1814 (Primary HTS)]", "format": "functional", "settings": "Homo sapiens"}, "Large T antigen": {"target": "Large T antigen (Simian virus 40, UniProt P03070)", "sequence (P03070 whole entry)": "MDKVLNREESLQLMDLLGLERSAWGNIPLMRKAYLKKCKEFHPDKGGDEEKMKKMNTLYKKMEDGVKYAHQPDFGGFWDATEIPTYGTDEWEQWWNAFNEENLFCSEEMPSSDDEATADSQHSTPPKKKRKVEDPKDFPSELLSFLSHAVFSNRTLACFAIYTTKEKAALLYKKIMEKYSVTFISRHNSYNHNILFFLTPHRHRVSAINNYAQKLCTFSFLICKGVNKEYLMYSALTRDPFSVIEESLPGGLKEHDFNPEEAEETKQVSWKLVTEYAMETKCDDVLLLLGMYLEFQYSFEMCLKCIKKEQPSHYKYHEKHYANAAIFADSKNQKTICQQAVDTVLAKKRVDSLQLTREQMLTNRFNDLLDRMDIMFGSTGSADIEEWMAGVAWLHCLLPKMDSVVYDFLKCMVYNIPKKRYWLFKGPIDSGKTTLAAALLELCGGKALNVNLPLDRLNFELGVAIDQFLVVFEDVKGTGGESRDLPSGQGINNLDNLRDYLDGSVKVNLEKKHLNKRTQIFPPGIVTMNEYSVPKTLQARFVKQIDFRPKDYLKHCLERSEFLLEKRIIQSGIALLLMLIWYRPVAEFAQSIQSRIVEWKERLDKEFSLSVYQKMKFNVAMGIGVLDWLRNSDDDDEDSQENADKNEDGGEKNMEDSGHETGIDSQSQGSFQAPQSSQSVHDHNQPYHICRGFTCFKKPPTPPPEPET", "format": "functional, Betapolyomavirus macacae"}, "[5]": {"target": "Glucose-6-phosphate 1-dehydrogenase (Homo sapiens, UniProt P11413)", "sequence (P11413 whole entry)": "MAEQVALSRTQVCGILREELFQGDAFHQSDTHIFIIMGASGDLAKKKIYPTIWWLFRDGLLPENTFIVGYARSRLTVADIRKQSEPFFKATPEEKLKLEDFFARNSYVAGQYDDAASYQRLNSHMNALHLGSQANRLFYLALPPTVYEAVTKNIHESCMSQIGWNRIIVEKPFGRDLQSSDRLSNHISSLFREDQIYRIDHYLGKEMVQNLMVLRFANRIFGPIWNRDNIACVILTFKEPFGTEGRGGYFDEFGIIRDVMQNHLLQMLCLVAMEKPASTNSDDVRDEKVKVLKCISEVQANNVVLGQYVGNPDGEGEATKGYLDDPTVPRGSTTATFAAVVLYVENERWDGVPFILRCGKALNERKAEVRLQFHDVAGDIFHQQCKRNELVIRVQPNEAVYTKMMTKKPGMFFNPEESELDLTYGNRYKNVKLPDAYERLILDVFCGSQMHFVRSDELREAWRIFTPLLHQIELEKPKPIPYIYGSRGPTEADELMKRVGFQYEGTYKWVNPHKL", "assay": "human G6PD enzyme inhibitors, dose response, selectivity assay for P. falciparum G6PD inhibitor project, biochemical, fluorescence (AID 504792)", "format": "functional"}, "Vero": {"system": "Vero", "assay": "Vero cell cytotoxicity, cytotoxicity control for flavivirus capping enzyme inhibitors (AID 588742)", "format": "functional", "settings": "Chlorocebus sabaeus"}, "INS1": {"system": "INS1", "assay": "beta cell apoptosis inhibitors, cytokine rescue, dose response, luminescence, retest (AID 449756);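 also: cell death triggered by IL-1 beta plus TNF-alpha plus IFN-gamma mixture; protective hits raise ATP signal compared with cytokine alone wells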", "format": "functional, cell-based", "settings": "Rattus norvegicus"}, "Genome polyprotein": {"target": "Genome polyprotein (dengue virus type 2, UniProt P29990)", "sequence (P29990 2492-3391 limits assumed)": "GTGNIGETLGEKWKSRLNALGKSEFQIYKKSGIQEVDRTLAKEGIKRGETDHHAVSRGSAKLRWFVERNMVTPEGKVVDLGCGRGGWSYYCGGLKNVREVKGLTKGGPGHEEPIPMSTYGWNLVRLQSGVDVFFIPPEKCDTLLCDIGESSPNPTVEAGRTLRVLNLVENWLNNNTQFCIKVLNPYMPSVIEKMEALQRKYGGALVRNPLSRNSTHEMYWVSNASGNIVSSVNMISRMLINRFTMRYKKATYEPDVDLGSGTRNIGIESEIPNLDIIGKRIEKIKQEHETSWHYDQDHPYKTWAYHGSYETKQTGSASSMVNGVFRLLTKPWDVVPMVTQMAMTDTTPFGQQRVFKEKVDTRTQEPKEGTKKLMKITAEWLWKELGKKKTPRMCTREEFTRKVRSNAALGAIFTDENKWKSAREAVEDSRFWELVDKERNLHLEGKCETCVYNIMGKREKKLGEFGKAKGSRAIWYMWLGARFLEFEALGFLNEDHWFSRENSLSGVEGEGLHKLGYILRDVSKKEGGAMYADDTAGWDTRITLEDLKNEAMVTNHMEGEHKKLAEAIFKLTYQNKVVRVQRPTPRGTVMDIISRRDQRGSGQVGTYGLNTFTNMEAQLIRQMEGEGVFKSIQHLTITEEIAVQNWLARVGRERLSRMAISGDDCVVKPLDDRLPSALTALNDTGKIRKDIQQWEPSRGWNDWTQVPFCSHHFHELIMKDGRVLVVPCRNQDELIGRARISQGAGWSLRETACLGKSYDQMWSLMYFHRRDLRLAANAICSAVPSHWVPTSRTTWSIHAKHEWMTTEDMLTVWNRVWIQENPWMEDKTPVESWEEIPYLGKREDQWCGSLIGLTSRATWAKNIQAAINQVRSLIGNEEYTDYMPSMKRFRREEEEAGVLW", "assay": "Dengue-2 NS5 methyltransferase inhibitors, primary screen, biochemical, confirmation dose response (AID 588689)", "format": "functional"}, "[6]": {"target": "Photoreceptor-specific nuclear receptor (Homo sapiens, UniProt Q9Y5X4)", "sequence (Q9Y5X4 whole entry)": "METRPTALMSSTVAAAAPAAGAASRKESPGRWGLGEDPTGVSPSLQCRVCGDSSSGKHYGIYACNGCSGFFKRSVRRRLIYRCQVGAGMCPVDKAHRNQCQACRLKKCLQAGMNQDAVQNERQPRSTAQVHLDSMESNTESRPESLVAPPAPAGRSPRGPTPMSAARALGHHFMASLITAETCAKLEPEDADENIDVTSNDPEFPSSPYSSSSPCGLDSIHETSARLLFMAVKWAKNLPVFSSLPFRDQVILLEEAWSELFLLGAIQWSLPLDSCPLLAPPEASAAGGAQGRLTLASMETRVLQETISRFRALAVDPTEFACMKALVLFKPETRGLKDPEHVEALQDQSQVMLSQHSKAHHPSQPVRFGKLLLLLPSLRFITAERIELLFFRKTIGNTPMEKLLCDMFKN", "format": "functional, cell-based"}, "H9c2": {"system": "H9c2", "assay": "cells", "format": "functional, cell-based", "settings": "Rattus norvegicus, H9c2, Myocardium"}, "[7]": {"target": "T2, Ubiquitin-conjugating enzyme E2 N (Homo sapiens, UniProt P61088)", "T2 sequence (P61088 whole entry)": "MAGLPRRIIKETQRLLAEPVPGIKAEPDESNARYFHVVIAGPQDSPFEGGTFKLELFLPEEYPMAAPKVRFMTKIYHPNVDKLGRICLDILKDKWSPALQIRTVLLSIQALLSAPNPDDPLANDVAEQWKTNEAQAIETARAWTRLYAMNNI", "format": "functional"}, "Escherichia coli": {"system": "Escherichia coli", "assay": "microbe, parasite or virus in culture"}}, "note": "Activity calls are given as the source filed them."}
{"molecule": "COC(=O)/C(=C1\\Oc2ccc(C(C)(C)C)cc2S1)C(F)(F)F", "values": [{"measurement": "AC50", "setting": "HeLa", "result": "57.7 µM (active)"}]}
{"molecule": "O=C1NC(=O)C2C1C(c1ccc([N+](=O)[O-])cc1)=NN2Cc1ccccc1", "note": "(stereo unspecified)", "values": [{"measurement": "IC50", "setting": "CHO", "result": "> 49.8 µM (inactive)"}, {"measurement": "IC50", "setting": "Beta Lactamase", "result": "10.3 µM (inactive)"}]}
{"molecule": "NC(=O)CC(NC(=O)c1ccc(Br)cc1)c1ccc(N2CCN(c3ccccn3)CC2)c([N+](=O)[O-])c1", "note": "(stereo unspecified)", "values": [{"measurement": "EC50", "setting": "[1]", "result": "0.213 µM (active)"}]}
{"molecule": "CC(=O)c1csc(Nc2ccccc2Cl)n1", "values": [{"measurement": "IC50", "setting": "HEK293", "result": "> 67.6 µM (inactive)"}, {"measurement": "IC50", "setting": "[2]", "result": "> 67.6 µM (inactive)"}]}
{"molecule": "O=[N+]([O-])c1ccc(-[n+]2ccc3ccccc3c2)c([N+](=O)[O-])c1", "values": [{"measurement": "EC50", "setting": "[3]", "result": "> 120 µM (not active)"}, {"measurement": "EC50", "setting": "[4]", "result": "11.4 µM (active)"}, {"measurement": "EC50", "setting": "H4", "result": "> 120 µM (not active)"}, {"measurement": "IC50", "setting": "Large T antigen", "result": "79.1 µM (active)"}, {"measurement": "IC50", "setting": "[5]", "result": "> 80 µM (inactive)"}, {"measurement": "CC50", "setting": "Vero", "result": "24.9 µM (active)"}, {"measurement": "AC50", "setting": "INS1", "result": "3.36 µM (active)"}, {"measurement": "IC50", "setting": "Genome polyprotein", "result": "> 100 µM (active)"}, {"measurement": "EC50", "setting": "[1]", "result": "10.2 µM (inactive)"}]}
{"molecule": "Cc1ccc(S(=O)(=O)c2ccc([N+](=O)[O-])o2)cc1", "values": [{"measurement": "IC50", "setting": "CHO", "result": "0.745 µM (active)"}, {"measurement": "IC50", "setting": "Beta Lactamase", "result": "11.2 µM (inactive)"}, {"measurement": "IC50", "setting": "[6]", "result": "2.9 µM (active)"}]}
{"molecule": "CC(=O)Nc1ccc(S(=O)(=O)N(Cc2cccnc2)Cc2cc3ccccc3nc2O)cc1", "values": [{"measurement": "IC50", "setting": "H9c2", "result": "> 79 µM (inactive)"}, {"measurement": "EC50", "setting": "[1]", "result": "0.801 µM (active)"}]}
{"molecule": "COC(=O)c1c(-c2ccc(S(C)(=O)=O)cc2)sc2ccc(OC)cc12", "values": [{"measurement": "IC50", "setting": "[7]", "result": "> 20 µM (inactive)"}, {"measurement": "AC50", "setting": "HeLa", "result": "28 µM (active)"}]}
{"molecule": "CC(=O)NC(Cc1c[nH]c2ccccc12)C(=O)O", "note": "(stereo unspecified)", "values": [{"measurement": "IC50", "setting": "HEK293", "result": "> 67.6 µM (inactive)"}, {"measurement": "IC50", "setting": "[2]", "result": "> 67.6 µM (inactive)"}]}
{"molecule": "Cc1cc(C)c2c(N)c(C(=O)N/N=C/c3ccccc3)sc2n1", "values": [{"measurement": "IC50", "setting": "HEK293", "result": "> 67.5 µM (inactive)"}, {"measurement": "IC50", "setting": "[2]", "result": "> 67.5 µM (inactive)"}]}
{"molecule": "O=C(O)c1ccc(/C=N/Nc2nc3ccccc3[nH]2)cc1", "values": [{"measurement": "IC50", "setting": "HEK293", "result": "> 67.6 µM (inactive)"}, {"measurement": "IC50", "setting": "[2]", "result": "> 67.6 µM (inactive)"}]}
{"molecule": "COc1ccc(C(=O)/C=C/c2ccc(N(C)C)cc2)c(OC)c1", "values": [{"measurement": "IC50", "setting": "CHO", "result": "> 49.8 µM (inactive)"}, {"measurement": "IC50", "setting": "Beta Lactamase", "result": "4.71 µM (active)"}]}
{"molecule": "CS(=O)(=O)c1ccc([C@@H](O)[C@@H](CF)NC(=O)C(Cl)Cl)cc1", "note": "[FLORFENICOL]", "values": [{"measurement": "AC50", "setting": "Escherichia coli", "result": "3.83 µM (active)"}]}
